Assay results as given in patent US20240252654A1, “IMPROVED SMALL MOLECULES” (University of Dundee, priority 2020, published 2024).
pEC50: −log10 of the molar value.

How the values were obtained:
22Rv1 cells [1] = experiment: Caspase-Glo 3/7 assay; assay type: cell-based; details: 22Rv1, 24 h
Protocol: Caspase-Glo® 3/7 assays. 22Rv1 cells were seeded at 10,000 cells/well of white 96 well plates (Corning #3917) 12-24 h before treatment with test compounds with and without inhibitors or an equivalent volume of DMSO for 24 h. 100 μL/well of Caspase-Glo@ 3/7 Reagent (Promega) was added and the plate shaken at 500 rpm for 30 seconds. The plate was incubated for 2 h and luminescence measured using a PHERAstar FS plate reader (BMG Labtech).

BRD2, BRD3 and BRD4 = experiment: Immunoblot degradation of BET proteins in HEK293 cells; assay type: cell-based, human
Protocol: To evaluate the ability of trivalent compounds to induce intracellular degradation of BET proteins, the inventors first treated human HEK293 cells for 4 hours at 1 μM concentration and assessed levels of BRD2, BRD3 and BRD4 by western blot. […] To confirm the greater activity of VHL-based compounds compared to CRBN-based PROTACs they next used live cell continual luminescent monitoring of CRISPR/Cas9 endogenously tagged HiBiT-BRD4 in HEK293 cells over 24 h^29,31. […] To confirm greater potency of VHL-based compounds, the inventors evaluated growth inhibition profiles of BET-sensitive cancer cell lines MV4; 11 (FIG. 1f), A549 and HL-60 (FIG. 6c) with compound treatments. […] Together, the initial screens support greater activity of structure-guided designed VHL degraders over their homologous CRBN molecules.
(§1) Degradation assays. MV4; 11 cells were seeded at 1×10^6 cells/mL of 10 cm dishes 12-24 h before treatment. 22Rv1 and HEK293 cells were seeded at 2.5-6×10^5 cells/well of 6 well plates 12-24 h before treatment. Cells were treated with test compounds with and without inhibitors as indicated or an equivalent volume of DMSO and lysed at the stated time point. For lysis, cells were washed twice in ice cold PBS (Invitrogen) then lysed in 250 μL/plate for MV4; 11 cells or 80 μL/well for 22Rv1 and HEK293 cells of ice cold lysis buffer containing 50 mM Tris hydrochloride pH 7.4, 150 mM sodium chloride, 1 mM EDTA pH 7.4, 1% v/v Triton X-100, 1×Halt™ Protease Inhibitor Cocktail (ThermoFisher). Lysates were sonicated, cleared by centrifugation at 4° C., at 15800×g for 10 mins and the supernatants stored at −80° C. Protein concentration was determined by BCA assay (Pierce) and the absorbance at 562 nm measured by spectrophotometry (NanoDrop ND1000). […] Bands were detected using a ChemiDoc MP imaging system (BioRad) and quantified (Image Studio Lite, version 5.2) with normalisation to β-actin and the DMSO control per time point. […]

[2] = test system: HiBiT-BRD2, BRD3, and BRD4; experiment: Degradation washout experiment, CRISPR HiBiT-BET HEK293 cells; assay type: cell-based, human; details: 100 nM for 3.5 h then washout, monitored 50 h
Protocol: Media containing the 10 nM and/or 100 nM compounds was removed at 3.5 h, indicated on the graphs, and replaced with media lacking compounds for the remainder of the experiment. Luminescence (RLU) was continuously monitored over a 50 h time period and is plotted normalized to the DMSO control as Fractional RLU.
To assess whether the trivalent PROTAC induced also a more sustained degradation of BET proteins in cells compared to MZ1 or (R,S)-SIM1, degradation washout experiments were performed. CRISPR HiBiT-BET HEK293 cells were treated with equivalent concentration (100 nM) of SIM1, (R,S)-SIM1 and MZ1 compounds for 3.5 h, then media was removed and replaced with media lacking compounds. […] The HiBiT-BET protein levels were continuously monitored from the initial addition of the compounds and immediately after the wash for a total time of 50 h.

22Rv1 cells [3] = experiment: PARP cleavage immunoblot in 22Rv1 cells; assay type: cell-based; details: 22Rv1, 10 nM, 24 h (MT1, MZ1 up to 48 h)
Protocol: Next, the inventors assessed the functional effects of SIM1 on the viability of 22Rv1 cancer cells. […] Cells died of apoptosis as indicated by prevented cleavage of PARP upon co-treatment with QVD-OPh, a pan-caspase inhibitor, and not of necroptosis, as shown by co-treatment with Necrostatin-1 (FIG. 3d and FIG. 10a).
as §1, with “Lysates were sonicated, cleared by centrifugation at 4° C., at 15800×g for 10 mins and the supernatants stored at −80° C.” left out

HiBiT-BRD4 [4] = molecular target: T1, HiBiT-BRD4 (Homo sapiens, UniProt O60885); experiment: NanoBRET target engagement, permeabilized and live cells; assay type: cell-based; details: live cell format; unit given with each value; read-out: IC80 for tracer displacement
T1 construct: endogenously HiBiT tag the N-terminal genomic loci of BRD2, BRD3, or BRD4; endogenous in cells; host or cells: HEK293 stably expressing LgBiT, CRISPR/Cas9 edited
Protocol: Cells were treated with a fluorescent BET tracer, then incubated with the indicated compounds at various concentrations to measure competitive displacement.
(§2) NanoBRET Target Engagement and Residence Time. For target engagement experiments in live and permeabilized cells, CRISPR HiBiT-BRD4 HEK293 cells stably expressing LgBiT were plated into white 96-well tissue culture plates at a density of 2×10^4 cells/well. Cells were equilibrated for 1 h with energy transfer probes and the indicated test compound prior to NanoBRET measurements. NanoBRET tracers were prepared at a working concentration of 20× in tracer dilution buffer (12.5 mM HEPES, 31.25% PEG-400, pH 7.5). NanoBRET BRD Tracer-02 was added to cells at a final concentration of 0.5 μM. To measure NanoBRET in live cells, NanoBRET NanoGlo Substrate and Extracellular NanoLuc Inhibitor (Promega) were added according to the manufacturer's recommended protocol, and filtered luminescence was measured on a GloMax Discover luminometer equipped with 450 nm BP filter (donor) and 600 nm LP filter (acceptor) using 0.3 s integration time. To measure NanoBRET in permeabilized cells, digitonin was added to the cells to a final concentration of 50 μg/mL and Extracellular NIuc inhibitor was omitted during the detection step. […] Cells were incubated in 15 mL conical tubes with caps loosened in a tissue culture incubator for 1 h. Following incubation, cells were spun at 300×g for 5 min, washed once with Opti-MEM, spun a second time at 300×g for 5 min, then resuspended with fresh Opti-MEM before plating at 2×10^4 cells/well. NanoBRET BRD Tracer-02 was added at a final concentration of 0.5 μM cells and kinetic NanoBRET measurements were collected on a GloMax Discover. NanoBRET ratios were expressed in milliBRET units and calculated according to the equation in the NanoBRET Ubiquitination, Ternary Complex and Biosensor Experiments section.

HiBiT-BRD4 [5] = molecular target: T1, HiBiT-BRD4; experiment: NanoBRET live cell residence time; assay type: cell-based; details: live cells
Protocol: as §2

| SMILES | pEC50 (22Rv1 cells [1]) | degradation of BRD2, BRD3 and BRD4 by western blot (BRD2, BRD3 and BRD4; HEK293 cells, 1 μM, 4 h) | BET protein level after washout [2] | preference of degradation among BET proteins (BRD2, BRD3 and BRD4; immunoblot, 4 h) | DC50 (BRD2, BRD3 and BRD4; immunoblot, 4 h treatment, across all the BET proteins) | PARP cleavage / cell death (22Rv1 cells [3]) | IC80 (HiBiT-BRD4 [4]) | residence time on BRD4 (HiBiT-BRD4 [5]) |
| --- | --- | --- | --- | --- | --- | --- | --- | --- |
| Cc1ncsc1-c1ccc([C@H](C)NC(=O)[C@@H]2C[C@@H](O)CN2C(=O)[C@@H](NC(=O)COCCCOCCNC(=O)C[C@@H]2N=C(c3ccc(Cl)cc3)c3c(sc(C)c3C)-n3c(C)nnc32)C(C)(C)C)cc1 [ARV-771] | 7.05 | – | – | – | – | – | – | – |
| Cc1ncsc1-c1ccc(CNC(=O)[C@@H]2C[C@@H](O)CN2C(=O)[C@@H](NC(=O)COCC(C)(COCCOCCOCCNC(=O)C[C@@H]2N=C(c3ccc(Cl)cc3)c3c(sc(C)c3C)-n3c(C)nnc32)COCCOCCOCCNC(=O)C[C@H]2N=C(c3ccc(Cl)cc3)c3c(sc(C)c3C)-n3c(C)nnc32)C(C)(C)C)cc1 (stereo partly drawn) [(R,S)-SIM1] | – | behave similarly to MZ1 and less potently than SIM1 | greater and occurred faster than those observed with SIM1 | – | – | – | – | – |
| Cc1ncsc1-c1ccc(CNC(=O)[C@@H]2C[C@@H](O)CN2C(=O)[C@@H](NC(=O)COCCOCCOCCNC(=O)C[C@@H]2N=C(c3ccc(Cl)cc3)c3c(sc(C)c3C)-n3c(C)nnc32)C(C)(C)C)cc1 [MZ1] | 6.82 | – | greater and occurred faster than those observed with SIM1 | […] | […] | did not cause observable PARP cleavage | 10000 nM | residence time between the monovalent and bivalent BET inhibitors |
